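Five concentrations, 48 hours, 96-well plates. GI50 marks 50% less growth.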 Activity calls are given as the source filed them. No stated cut-off is given here; in the data, active = GI50 up to about 1.1 µM and inactive = higher.
Assays:
Experiment in all cases: NCI-60 cell line screen, 48 h
[1] = system: SF-539
[2] = system: HCC 2998
[3] = system: K562
[4] = system: A549
[5] = system: RPMI-8226
[6] = system: OVCAR-3
[7] = system: 786-0
[8] = system: MDA-MB-231
[9] = system: NCI-H522
[10] = system: MDA-N
[11] = system: HOP-62
[12] = system: RXF 393
[13] = system: UACC-62
[14] = system: MDA-MB-435
[15] = system: NCI/ADR-RES
[16] = system: SR
[17] = system: CCRF-CEM
[18] = system: A498
[19] = system: NCI-H460
[20] = system: SK-OV-3

O=c1sc2c(s1)SSSSS2
GI50 [1]: 20.2 µM (inactive) | GI50 [2]: > 50 µM (inactive) | GI50 [3]: 31.8 µM (inactive) | GI50 [4]: > 50 µM (inactive) | GI50 [5]: > 50 µM (inactive) | GI50 [6]: 41.9 µM (inactive) | GI50 [7]: > 50 µM (inactive) | GI50 [8]: > 50 µM (inactive) | GI50 [9]: 34.2 µM (inactive) | GI50 [10]: > 50 µM (inactive) | GI50 [11]: > 50 µM (inactive) | GI50 [12]: > 50 µM (inactive) | GI50 [13]: 35.2 µM (inactive) | GI50 [14]: > 50 µM (inactive) | GI50 [15]: > 50 µM (inactive) | GI50 [16]: > 50 µM (inactive) | GI50 [17]: 9.18 µM (inactive) | GI50 [18]: > 50 µM (inactive) | GI50 [19]: 21.4 µM (inactive) | GI50 [20]: > 50 µM (inactive)

COc1ccccc1NC(=O)CC(=O)NN
GI50 [1]: > 100 µM (inactive) | GI50 [2]: 11.9 µM (inactive) | GI50 [3]: > 100 µM (inactive) | GI50 [4]: > 100 µM (inactive) | GI50 [5]: > 100 µM (inactive) | GI50 [6]: > 100 µM (inactive) | GI50 [7]: > 100 µM (inactive) | GI50 [8]: > 100 µM (inactive) | GI50 [9]: > 100 µM (inactive) | GI50 [10]: > 100 µM (inactive) | GI50 [11]: > 100 µM (inactive) | GI50 [12]: > 100 µM (inactive) | GI50 [13]: > 100 µM (inactive) | GI50 [14]: > 100 µM (inactive) | GI50 [15]: 9.77 µM (inactive) | GI50 [16]: > 100 µM (inactive) | GI50 [17]: > 100 µM (inactive) | GI50 [18]: > 100 µM (inactive) | GI50 [19]: > 100 µM (inactive) | GI50 [20]: > 100 µM (inactive)

CCCCCc1cc(CCCC)sc1-c1ccco1
GI50 [1]: > 93.8 µM (inactive) | GI50 [2]: > 95.9 µM (inactive) | GI50 [3]: > 58.2 µM (inactive) | GI50 [4]: 40 µM (inactive) | GI50 [5]: 55.3 µM (inactive) | GI50 [6]: > 74.8 µM (inactive) | GI50 [7]: > 100 µM (inactive) | GI50 [8]: > 100 µM (inactive) | GI50 [9]: > 100 µM (inactive) | GI50 [10]: > 80.5 µM (inactive) | GI50 [11]: > 100 µM (inactive) | GI50 [12]: 45.8 µM (inactive) | GI50 [13]: > 100 µM (inactive) | GI50 [14]: 66.5 µM (inactive) | GI50 [15]: > 100 µM (inactive) | GI50 [16]: 44.2 µM (inactive) | GI50 [17]: 30.5 µM (inactive) | GI50 [18]: > 100 µM (inactive) | GI50 [19]: > 100 µM (inactive) | GI50 [20]: > 100 µM (inactive)

CCOC(=O)NC1CN2CCC1CC2 (stereo not given)
GI50 [1]: > 100 µM (inactive) | GI50 [2]: > 100 µM (inactive) | GI50 [3]: > 100 µM (inactive) | GI50 [4]: > 100 µM (inactive) | GI50 [5]: > 100 µM (inactive) | GI50 [6]: > 100 µM (inactive) | GI50 [7]: > 100 µM (inactive) | GI50 [8]: > 100 µM (inactive) | GI50 [9]: > 100 µM (inactive) | GI50 [10]: > 100 µM (inactive) | GI50 [11]: > 100 µM (inactive) | GI50 [12]: > 100 µM (inactive) | GI50 [13]: > 100 µM (inactive) | GI50 [14]: > 100 µM (inactive) | GI50 [15]: > 100 µM (inactive) | GI50 [16]: > 100 µM (inactive) | GI50 [17]: > 100 µM (inactive) | GI50 [18]: > 100 µM (inactive) | GI50 [19]: > 100 µM (inactive) | GI50 [20]: > 100 µM (inactive)

CCN1CCN(c2nc3ccccc3c3c2CCOc2ccccc2-3)CC1
GI50 [1]: > 46.2 µM (inactive) | GI50 [2]: 18.6 µM (inactive) | GI50 [3]: 18.1 µM (inactive) | GI50 [4]: 45.8 µM (inactive) | GI50 [5]: 19.8 µM (inactive) | GI50 [6]: > 69 µM (inactive) | GI50 [7]: 22.3 µM (inactive) | GI50 [8]: 23.5 µM (inactive) | GI50 [9]: 26.4 µM (inactive) | GI50 [10]: 25.7 µM (inactive) | GI50 [11]: 46.7 µM (inactive) | GI50 [12]: 25.2 µM (inactive) | GI50 [13]: 17.7 µM (inactive) | GI50 [14]: 24.9 µM (inactive) | GI50 [15]: > 46.3 µM (inactive) | GI50 [16]: 2.85 µM (inactive) | GI50 [17]: 21.3 µM (inactive) | GI50 [18]: > 39.3 µM (inactive) | GI50 [19]: 27.2 µM (inactive) | GI50 [20]: > 47.8 µM (inactive)

O=C1C(SCCO)=C(SCCO)C(=O)c2ccccc21
GI50 [1]: 0.745 µM (active) | GI50 [2]: 1.74 µM (inactive) | GI50 [3]: 1.67 µM (inactive) | GI50 [4]: 1.29 µM (inactive) | GI50 [5]: 0.865 µM (active) | GI50 [6]: 0.986 µM (active) | GI50 [7]: 2.04 µM (inactive) | GI50 [8]: 1.48 µM (inactive) | GI50 [9]: 1.86 µM (inactive) | GI50 [10]: 0.167 µM (active) | GI50 [11]: 1.85 µM (inactive) | GI50 [12]: 1.33 µM (inactive) | GI50 [13]: 1.44 µM (inactive) | GI50 [14]: 0.186 µM (active) | GI50 [15]: 0.94 µM (active) | GI50 [16]: 1.51 µM (inactive) | GI50 [17]: 0.916 µM (active) | GI50 [18]: 0.59 µM (active) | GI50 [19]: 1.77 µM (inactive) | GI50 [20]: 1.66 µM (inactive)
